Data on 19 compounds can be found in patent EP0153845A2, “CRF analogs” (THE SALK INSTITUTE FOR BIOLOGICAL STUDIES, priority 1984, dated 1985).

The target in test [1] is T1, cultured rat pituitary cells (Rattus norvegicus, UniProt P35353).
T1 sequence (P35353 24-415): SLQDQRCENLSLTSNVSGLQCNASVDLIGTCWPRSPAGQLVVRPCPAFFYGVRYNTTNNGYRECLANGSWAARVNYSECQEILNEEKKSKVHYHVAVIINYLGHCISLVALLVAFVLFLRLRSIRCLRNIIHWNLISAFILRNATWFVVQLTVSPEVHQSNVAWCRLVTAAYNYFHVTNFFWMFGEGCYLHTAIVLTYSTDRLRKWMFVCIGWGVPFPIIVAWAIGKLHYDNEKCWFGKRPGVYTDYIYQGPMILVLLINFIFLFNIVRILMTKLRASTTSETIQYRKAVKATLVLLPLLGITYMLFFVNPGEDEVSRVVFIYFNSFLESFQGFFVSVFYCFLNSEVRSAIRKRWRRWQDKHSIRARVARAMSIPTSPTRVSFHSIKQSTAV
Kind of test: Block of ACTH and β-endorphin secretion by cultured rat pituitary cells by CRF antagonists (procedure of Example XLIII). It counts as cell-based. The following applies: general procedure of Example XLIII. The method, then:
The effectiveness of synthetic CRF antagonists to block the secretion of ACTH and B-endorphin by cultured rat pituitary cells is measured using the procedure as generally set forth in Vale et al., Endocrinology, 91, 562 (1972). In vivo testing is carried out using the general procedure set forth in C. Rivier et al., Science, 218, 377 (1982).

Test [2] can be described thus: Lowering of blood pressure, in vivo testing by the general procedure of Example III.

Square brackets hold non-standard residues; d marks the D form. Ends that are not written are not given here. Peptide text beside a SMILES is read from it. Nle = CCCC[C@H](N)C(=O)O

Take `CCCC[C@H](NC(=O)[C@H](CCC(=O)O)NC(=O)[C@H](CC(C)C)NC(=O)[C@H](CCCC)NC(=O)[C@H](CCC(=O)O)NC(=O)[C@H](CCCNC(=N)N)NC(=O)[C@H](CC(C)C)NC(=O)[C@H](CC(C)C)NC(=O)[C@H](Cc1c[nH]cn1)NC(=O)[C@H](Cc1ccccc1)NC(=O)[C@@H](NC(=O)[C@H](CC(C)C)NC(=O)[C@@H](N)CC(=O)O)[C@@H](C)O)C(=O)N[C@@H](C)C(=O)N[C@@H](CCCCN)C(=O)N[C@@H](C)C(=O)N[C@@H](CCC(=O)O)C(=O)N[C@@H](CCC(N)=O)C(=O)N[C@@H](CCC(=O)O)C(=O)N[C@@H](C)C(=O)N[C@@H](CCC(=O)O)C(=O)N[C@@H](CCC(N)=O)C(=O)N[C@@H](C)C(=O)N[C@@H](C)C(=O)N[C@@H](CC(C)C)C(=O)N[C@@H](CC(N)=O)C(=O)N[C@@H](CCCNC(=N)N)C(=O)N[C@@H](CC(C)C)C(=O)N[C@@H](CC(C)C)C(=O)N[C@@H](CC(C)C)C(=O)N[C@@H](CCC(=O)O)C(=O)N[C@@H](CCC(=O)O)C(=O)N[C@@H](C)C(N)=O` [[Nie^18,21]-AHC(9-41)] (H-DLTFHLLRE[Nle]LE[Nle]AKAEQEAEQAALNRLLLEEA-NH2): in test [1], the “secretion of ACTH and β-END-LI (antagonist test)” value (“secretion of ACTH and β-END-LI” for short) was “inhibits”. Same read-out and setting: the same measure for `CCCC[C@H](N)C(=O)N[C@@H](CC(=O)O)C(=O)N[C@@H](CC(C)C)C(=O)N[C@@H](CO)C(=O)N[C@@H](Cc1ccccc1)C(=O)N[C@@H](Cc1c[nH]cn1)C(=O)N[C@@H](CC(C)C)C(=O)N[C@@H](CC(C)C)C(=O)N[C@@H](CCCNC(=N)N)C(=O)N[C@@H](CCC(=O)O)C(=O)N[C@H](C(=O)N[C@@H](CC(C)C)C(=O)N[C@@H](CCC(=O)O)C(=O)N[C@@H](CCSC)C(=O)N[C@@H](C)C(=O)N[C@@H](CCCNC(=N)N)C(=O)N[C@@H](C)C(=O)N[C@@H](CCC(=O)O)C(=O)N[C@@H](CCC(N)=O)C(=O)N[C@@H](CC(C)C)C(=O)N[C@@H](C)C(=O)N[C@@H](CCC(N)=O)C(=O)N[C@@H](CCC(N)=O)C(=O)N[C@@H](C)C(=O)N[C@@H](Cc1c[nH]cn1)C(=O)N[C@@H](CC(C)C)C(=O)N[C@@H](CC(N)=O)C(=O)N[C@@H](CCCNC(=N)N)C(=O)N[C@@H](CCCCN)C(=O)N[C@@H](CC(C)C)C(=O)N[C@@H](CCSC)C(=O)N[C@@H](CCC(=O)O)C(=O)N[C@H](C(=O)N[C@H](C(N)=O)[C@@H](C)CC)[C@@H](C)CC)C(C)C` [[Nle^8, Ser^ll, Leu^33]-hCRF(8-41)] (H-[Nle]DLSFHLLREVLEMARAEQLAQQAHLNRKLMEII-NH2): “inhibits”; for `CCCC[C@H](NC(=O)[C@H](CCC(=O)O)NC(=O)[C@H](CC(C)C)NC(=O)[C@H](CCCC)NC(=O)[C@H](CCC(=O)O)NC(=O)[C@H](CCCNC(=N)N)NC(=O)[C@H](CC(C)C)NC(=O)[C@H](CC(C)C)NC(=O)[C@H](Cc1c[nH]cn1)NC(=O)[C@H](Cc1ccccc1)NC(=O)[C@@H](NC(=O)[C@H](CC(C)C)NC(=O)[C@H](CC(=O)O)NC(=O)[C@@H](N)CC(C)C)[C@@H](C)O)C(=O)N[C@@H](C)C(=O)N[C@@H](CCCCN)C(=O)N[C@@H](C)C(=O)N[C@@H](CCC(=O)O)C(=O)N[C@@H](CCC(N)=O)C(=O)N[C@@H](CCC(=O)O)C(=O)N[C@@H](C)C(=O)N[C@@H](CCC(=O)O)C(=O)N[C@@H](CCC(N)=O)C(=O)N[C@@H](C)C(=O)N[C@@H](C)C(=O)N[C@@H](CC(C)C)C(=O)N[C@@H](CC(N)=O)C(=O)N[C@@H](CCCNC(=N)N)C(=O)N[C@@H](CC(C)C)C(=O)N[C@@H](CC(C)C)C(=O)N[C@@H](CC(C)C)C(=O)N[C@@H](CCC(=O)O)C(=O)N[C@@H](CCC(=O)O)C(=O)N[C@@H](C)C(N)=O` [[Nle^18,21]-AHC(8-41)] (H-LDLTFHLLRE[Nle]LE[Nle]AKAEQEAEQAALNRLLLEEA-NH2): “inhibits”; for `CCCC[C@H](NC(=O)[C@H](CCC(=O)O)NC(=O)[C@H](CC(C)C)NC(=O)[C@H](CCCC)NC(=O)[C@H](CCC(=O)O)NC(=O)[C@H](CCCNC(=N)N)NC(=O)[C@H](CC(C)C)NC(=O)[C@H](CC(C)C)NC(=O)[C@H](Cc1c[nH]cn1)NC(=O)[C@H](Cc1ccccc1)NC(=O)[C@@H](NC(=O)[C@@H](N)CC(C)C)[C@@H](C)O)C(=O)N[C@@H](C)C(=O)N[C@@H](CCCCN)C(=O)N[C@@H](C)C(=O)N[C@@H](CCC(=O)O)C(=O)N[C@@H](CCC(N)=O)C(=O)N[C@@H](CCC(=O)O)C(=O)N[C@@H](C)C(=O)N[C@@H](CCC(=O)O)C(=O)N[C@@H](CCC(N)=O)C(=O)N[C@@H](C)C(=O)N[C@@H](C)C(=O)N[C@@H](CC(C)C)C(=O)N[C@@H](CC(N)=O)C(=O)N[C@@H](CCCNC(=N)N)C(=O)N[C@@H](CC(C)C)C(=O)N[C@@H](CC(C)C)C(=O)N[C@@H](CC(C)C)C(=O)N[C@@H](CCC(=O)O)C(=O)N[C@@H](CCC(=O)O)C(=O)N[C@@H](C)C(N)=O` [[Nle^18,21]-AHC(10-41)] (H-LTFHLLRE[Nle]LE[Nle]AKAEQEAEQAALNRLLLEEA-NH2): “inhibits”. For `CCCC[C@H](NC(=O)[C@H](CCC(=O)O)NC(=O)[C@H](CC(C)C)NC(=O)[C@@H](NC(=O)[C@H](CCC(=O)O)NC(=O)[C@H](CCCNC(=N)N)NC(=O)[C@H](CC(C)C)NC(=O)[C@H](CC(C)C)NC(=O)[C@H](Cc1c[nH]cn1)NC(=O)[C@H](Cc1ccccc1)NC(=O)[C@@H](NC(=O)[C@H](CC(C)C)NC(=O)[C@@H](N)CC(=O)O)[C@@H](C)O)C(C)C)C(=O)N[C@@H](C)C(=O)N[C@@H](CCCNC(=N)N)C(=O)N[C@@H](C)C(=O)N[C@@H](CCC(=O)O)C(=O)N[C@@H](CCC(N)=O)C(=O)N[C@@H](CC(C)C)C(=O)N[C@@H](C)C(=O)N[C@@H](CCC(N)=O)C(=O)N[C@@H](CCC(N)=O)C(=O)N[C@@H](C)C(=O)N[C@@H](Cc1ccc(O)cc1)C(=O)N[C@@H](CO)C(=O)N[C@@H](CC(N)=O)C(=O)N[C@@H](CCCNC(=N)N)C(=O)N[C@@H](CCCCN)C(=O)N[C@@H](CC(C)C)C(=O)N[C@@H](CCSC)C(=O)N[C@@H](CCC(=O)O)C(=O)N[C@H](C(=O)N[C@H](C(N)=O)[C@@H](C)CC)[C@@H](C)CC` [[Nle^21, Tyr^32]-hCRF(9-41)] (H-DLTFHLLREVLE[Nle]ARAEQLAQQAYSNRKLMEII-NH2), the “secretion of ACTH and β-END-LI” value in test [1] was “inhibits”. On the same count and under the same terms, with “Ac-DLTFHLLREVLEMARAEQLAQQAHSNRKLMDII-NH2 [[Acetyl-Asp^9, Asp^39]-hCRF(9-41)]” the entry was “inhibits”; with “H-Asp-CML-Thr-Leu-Glu-CML-CML-Arg-Glu-Met-CML-Glu-Met-CMA-Lys-Ala-Glu-Gln-CML-Ala-Glu-Gln-Ala-CMA-CML-Asn-Arg-Leu-CML-Leu-Glu-Glu-. CMA-NB2”, “inhibits”. For “H-Asp-CML-Thr-Leu-Glu-CML-Leu-Arg-Glu-Met-CML-Glu-Met-Ala-Lys-Ala-Glu-Gln-CML-Ala-Glu-Gln-Ala-Ala-CML-Asn-Arg-Leu-CML-Leu-Glu-Glu-Ala-NH2 [[CML^10,14,19,27,33,38]-AHC(9-41)]”, the “secretion of ACTH and β-END-LI” value in test [1] was “stimulates”. Also, the “lowering of blood pressure” value in test [2] is reported as “very significant lowering of blood pressure”.

As to “H-DLSLELLRKMIEIAKQEKEKQQAANNRLLMDTI-NH2 [[Ala^21, Met^37]-sauvagine(8-40)]”, the “secretion of ACTH and β-END-LI” value in test [1] is listed as “inhibits”. The same measure, in the same setting: the same measure for “H-DLSLELLRKMIEIEKQEKLKQQAANNRLLMDTI-NH2 [[Leu^26, Met^37]-sauvagine(8-40)]”: “inhibits”; for “H-DLTFALLREMLEMAKAEQEAEQAALNRLLLEEA-NH2 [[Ala^13]-AHC(9-41)]”: “inhibits”.

For the compound “H-DLTFELLREVLEVARAEQLAQQAHSNRKLMEII-NH2 [[G1u^13, Val^21]-hCRF(9-41)]”, the “secretion of ACTH and β-END-LI” value in test [1] was “inhibits”. The same measure, in the same setting: the same measure for “H-DLTFHLLREVAEMTRAEQLAQQAHSNRKLMEII-NH2 [(Ala^19, Thr^22]-hCRF(9-41)]”: “inhibits”; for “H-DLTFHLLRNMIEMARNENQREQAGLNRKYLDEV-NH2 [Carp Urotensin 1(9-41)]”: “inhibits”. The same measure, in the same setting: with “H-DLTLELLREMLEMAKAEQEAEQAALNRLLLEEA-NH2 [[Leu^12, Glu^13]-AHC(9-41)]” the entry was “inhibits”; with “H-IDLTFHLLRNMIEMARNENQREQAGLNRKYLDEV-NH2 [Carp Urotensin 1(8-41)]”, “inhibits”; with “H-LDLTFHLLREVLEMAKAEQLAQQAHSNRKLLEII-NH2 [[Lys^23, Leu^38]-hCRF(8-41)]”, “inhibits”.

Regarding “H-LDLTLELLREMLEMEKAEKEAEQAALNRLLLEEA-NH2 [[G1u^13,22, Leu^l2, Lys^26]-AHC(8-41)]”, in test [1], the “secretion of ACTH and β-END-LI” value is reported as “inhibits”. Still for that read-out and setting: with LSLELLRKMIEARKQEKEKQQAANNRLLLDII-NH2 the entry was “inhibits”.
